Source: ChEMBL document CHEMBL1129215, “(Dipropylamino)-tetrahydronaphthofurans: centrally acting serotonin agonists and dopamine agonists-antagonists” (Bioorg Med Chem Lett, 1997)
Calls of active or inactive are those of the source. No cut-off for these calls is given here.

What was measured:
[1] = tested on: Rattus norvegicus; assay: The compound was evaluated in vivo for the 5-HTP accumulation at hemispheres in reserpine pretreated rats; assay type: functional
[2] = tested on: Rattus norvegicus; assay: The compound was evaluated in vivo for the DOPA accumulation at corpus striatum; assay type: functional
[3] = target: D(3) dopamine receptor (Homo sapiens, UniProt P35462); assay: biochemical
Description: Tested in vitro for the inhibition of [3H]U-86170 binding to Dopamine receptor D3, expressed in cloned CHO cells

[4] = tested on: Rattus norvegicus; assay: The compound was evaluated in vivo for the DOPA accumulation at limbic regions; assay type: functional; settings: Limbic system
[5] = tested on: Rattus norvegicus; assay: The compound was evaluated in vivo for the DOPA accumulation at hemispheres in reserpine pretreated rats at 50 umol/kg; Inactive; assay type: functional, organism-based
[6] = tested on: Rattus norvegicus; assay: The compound was evaluated in vivo for the 5-HTP accumulation at corpus striatum; assay type: functional
[7] = target: T1, D(4) dopamine receptor (Homo sapiens) (UniProt P21917); assay: (§1) Tested in vitro for the inhibition of [3H]spiperone binding to Dopamine receptor D4, expressed in cloned CHO cells; Inactive; assay type: cell-based
T1 sequence (whole entry): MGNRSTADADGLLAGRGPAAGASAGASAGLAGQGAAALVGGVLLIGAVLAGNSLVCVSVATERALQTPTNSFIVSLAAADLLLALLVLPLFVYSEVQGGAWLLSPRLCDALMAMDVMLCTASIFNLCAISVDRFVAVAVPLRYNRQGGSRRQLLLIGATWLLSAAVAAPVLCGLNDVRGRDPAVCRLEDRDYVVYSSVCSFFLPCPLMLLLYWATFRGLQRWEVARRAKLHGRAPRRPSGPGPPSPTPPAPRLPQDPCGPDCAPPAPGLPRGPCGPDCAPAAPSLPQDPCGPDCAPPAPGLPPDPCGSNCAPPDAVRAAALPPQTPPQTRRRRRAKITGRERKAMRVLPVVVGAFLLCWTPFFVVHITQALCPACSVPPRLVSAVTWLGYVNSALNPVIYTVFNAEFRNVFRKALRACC

[8] = target: T2, 5-hydroxytryptamine receptor 1A (Homo sapiens, UniProt P08908); assay: Tested in vitro for the inhibition of [3H]8-OH-DPAT binding to 5-hydroxytryptamine 1A receptor, expressed in cloned CHO cells.; assay type: cell-based
T2 sequence (P08908 whole entry): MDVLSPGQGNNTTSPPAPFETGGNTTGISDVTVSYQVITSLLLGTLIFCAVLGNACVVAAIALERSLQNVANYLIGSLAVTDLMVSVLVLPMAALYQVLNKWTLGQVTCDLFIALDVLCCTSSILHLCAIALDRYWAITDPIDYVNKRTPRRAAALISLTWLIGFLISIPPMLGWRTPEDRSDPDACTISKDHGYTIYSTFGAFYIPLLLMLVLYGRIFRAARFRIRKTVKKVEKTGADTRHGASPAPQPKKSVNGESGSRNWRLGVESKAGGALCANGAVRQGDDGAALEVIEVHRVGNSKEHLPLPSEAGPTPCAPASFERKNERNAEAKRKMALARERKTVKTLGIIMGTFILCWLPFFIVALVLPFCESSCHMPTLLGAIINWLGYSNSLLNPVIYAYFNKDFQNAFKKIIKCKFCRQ

[9] = target: D(2) dopamine receptor (Rattus norvegicus, UniProt P61169); assay: Tested in vitro for the inhibition of [3H]raclopride binding to Dopamine receptor D2 in rat striatum; assay type: tissue-based
[10] = tested on: Rattus norvegicus; assay: The compound was evaluated in vivo for the 5-HTP accumulation at limbic regions; assay type: functional; settings: Limbic system
[11] = tested on: Rattus norvegicus; assay: The compound was evaluated in vivo for the 5-HTP accumulation at limbic regions at 13.5 umol/kg; inactive in highest dose tested; assay type: functional, organism-based; settings: Limbic system
[12] = tested on: Rattus norvegicus; assay: The compound was evaluated in vivo for the 5-HTP accumulation at corpus striatum at 13.5 umol/kg; inactive in highest dose tested; assay type: functional, organism-based
[13] = tested on: Rattus norvegicus; assay: The compound was evaluated in vivo for the 5-HTP accumulation at hemispheres in reserpine pretreated rats at 13.5 umol/kg; inactive in highest dose tested; assay type: functional, organism-based
[14] = tested on: Rattus norvegicus; assay: The compound was evaluated in vivo for the DOPA accumulation at hemispheres in reserpine pretreated rats at 13.5 umol/kg; inactive in highest dose tested; assay type: functional, organism-based
[15] = tested on: Rattus norvegicus; assay: The compound was evaluated in vivo for the DOPA accumulation at hemispheres in reserpine pretreated rats at 50 umol/kg; inactive in the highest dose tested; assay type: functional, organism-based
[16] = tested on: Rattus norvegicus; assay: The compound was evaluated in vivo for the DOPA accumulation at limbic regions at 50 umol/kg; Partial effects in the highest dose tested; assay type: functional, organism-based; settings: Limbic system
[17] = target: T3, D(4) dopamine receptor (Homo sapiens, UniProt P21917); assay: as §1; assay type: cell-based
T3 sequence (P21917 whole entry): T1 sequence (whole entry)

[18] = tested on: Rattus norvegicus; assay: The compound was evaluated in vivo for the DOPA accumulation at corpus striatum at 50 umol/kg; Partial effects in the highest dose tested; assay type: functional, organism-based
[19] = tested on: Rattus norvegicus; assay: The compound was evaluated in vivo for the DOPA accumulation at hemispheres in reserpine pretreated rats; partial effect at highest dose of 45 umol/kg; assay type: functional, organism-based
[20] = tested on: Rattus norvegicus; assay: The compound was evaluated in vivo for the DOPA accumulation at limbic regions; partial effect at highest dose of 45 umol/kg; assay type: functional, organism-based; settings: Limbic system
[21] = target: T3, D(4) dopamine receptor; assay: Tested in vitro for the inhibition of [3H]spiperone binding to Dopamine receptor D4, expressed in cloned CHO cells; assay type: cell-based
[22] = tested on: Rattus norvegicus; assay: The compound was evaluated in vivo for the DOPA accumulation at corpus striatum; partial effect at highest dose of 45 umol/kg; assay type: functional, organism-based
[23] = tested on: Rattus norvegicus; assay: The compound was evaluated in vivo for the 5-HTP accumulation at limbic regions at 11 umol/kg; inactive in highest dose tested; assay type: functional, organism-based; settings: Limbic system
[24] = tested on: Rattus norvegicus; assay: The compound was evaluated in vivo for the 5-HTP accumulation at corpus striatum at 11 umol/kg; inactive in highest dose tested; assay type: functional, organism-based
[25] = tested on: Rattus norvegicus; assay: The compound was evaluated in vivo for the 5-HTP accumulation at hemispheres in reserpine pretreated rats at 11 umol/kg; inactive in highest dose tested; assay type: functional, organism-based
[26] = tested on: Rattus norvegicus; assay: The compound was evaluated in vivo for the DOPA accumulation at hemispheres in reserpine pretreated rats at 11 umol/kg; inactive in highest dose tested; assay type: functional, organism-based
[27] = tested on: Rattus norvegicus; assay: The compound was evaluated in vivo for the locomotor activity in non-pretreated rats at 50 uM/kg dose; assay type: functional
[28] = tested on: Rattus norvegicus; assay: The compound was evaluated in vivo for the DOPA accumulation at corpus striatum in non-pretreated rats at 50 umol/kg dose; assay type: functional
[29] = tested on: Rattus norvegicus; assay: The compound was evaluated in vivo for the DOPA accumulation at limbic regions at 50 umol/kg dose; assay type: functional, Limbic system
[30] = tested on: Rattus norvegicus; assay: The compound was evaluated in vivo for the DOPA accumulation at limbic regions at 12.5 umol/kg; Inactive; assay type: functional, organism-based; settings: Limbic system
[31] = tested on: Rattus norvegicus; assay: The compound was evaluated in vivo for the DOPA accumulation at hemispheres in reserpine pretreated rats at 12.5 umol/kg; Inactive; assay type: functional, organism-based
[32] = target: Serotonin 2 (5-HT2) receptor (Homo sapiens, UniProt P41595+P28223+P28335); assay: Tested in vitro for the inhibition of [3H]ketanserin binding to 5-hydroxytryptamine 2 receptor, expressed in cloned CHO cells.; assay type: cell-based
[33] = tested on: Rattus norvegicus; assay: The compound was evaluated in vivo for the DOPA accumulation at corpus striatum at 12.5 umol/kg; Partial effects in the highest dose tested; assay type: functional, organism-based
[34] = tested on: Rattus norvegicus; assay: The compound was evaluated in vivo for the 5-HTP accumulation at limbic regions at 50 umol/kg; Inactive; assay type: functional, organism-based; settings: Limbic system
[35] = tested on: Rattus norvegicus; assay: The compound was evaluated in vivo for the 5-HTP accumulation at hemispheres in reserpine pretreated rats at 50 umol/kg; Inactive; assay type: functional, organism-based
[36] = tested on: Rattus norvegicus; assay: The compound was evaluated in vivo for the 5-HTP accumulation at corpus striatum at 50 umol/kg; Inactive; assay type: functional, organism-based
[37] = tested on: Rattus norvegicus; assay: The compound was evaluated in vivo for the locomotpr activity in non-pretreated rats at 50 uM/kg dose; assay type: functional

Sequence of D(3) dopamine receptor (P35462 whole entry): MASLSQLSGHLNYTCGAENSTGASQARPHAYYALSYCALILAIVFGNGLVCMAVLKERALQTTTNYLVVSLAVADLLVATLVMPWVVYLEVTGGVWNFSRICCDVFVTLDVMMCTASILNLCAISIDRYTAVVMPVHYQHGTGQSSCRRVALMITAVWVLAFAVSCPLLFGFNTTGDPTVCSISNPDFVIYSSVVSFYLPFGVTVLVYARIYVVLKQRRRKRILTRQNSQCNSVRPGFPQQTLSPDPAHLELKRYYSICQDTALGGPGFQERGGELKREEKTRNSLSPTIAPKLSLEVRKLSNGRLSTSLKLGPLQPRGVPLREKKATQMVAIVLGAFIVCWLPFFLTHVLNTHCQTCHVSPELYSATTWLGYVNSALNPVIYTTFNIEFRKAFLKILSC
Sequence of D(2) dopamine receptor (P61169 whole entry): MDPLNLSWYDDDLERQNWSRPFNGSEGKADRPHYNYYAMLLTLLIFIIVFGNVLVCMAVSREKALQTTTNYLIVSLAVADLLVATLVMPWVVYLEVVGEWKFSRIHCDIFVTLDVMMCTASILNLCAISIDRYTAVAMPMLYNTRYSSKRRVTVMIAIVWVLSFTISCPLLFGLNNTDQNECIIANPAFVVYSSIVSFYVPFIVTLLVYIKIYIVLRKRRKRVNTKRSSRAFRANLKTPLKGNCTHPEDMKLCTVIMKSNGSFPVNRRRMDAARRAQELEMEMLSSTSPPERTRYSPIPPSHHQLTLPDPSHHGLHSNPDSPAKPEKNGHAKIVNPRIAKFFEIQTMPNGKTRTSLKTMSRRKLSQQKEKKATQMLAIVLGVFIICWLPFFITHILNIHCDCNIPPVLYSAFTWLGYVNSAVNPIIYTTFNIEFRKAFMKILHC

Compound	ED50 [1]	ED50 [2]	Ki [3]	ED50 [4]	ED50 [6]	Ki [8]	Ki [9]	ED50 [10]	Ki [21]	Ki [32]	also measured
CCCN(CCC)C1CCc2ccc3occc3c2C1 (centres undefined)	6.08 µmol/kg	13.1 µmol/kg	45 nM	4.47 µmol/kg	2.12 µmol/kg	7.8 nM	64 nM	4.56 µmol/kg			ED50 [5]: inactive; ED50 [7]: inactive
CCCN(CCC)C1CCc2c(O)cccc2C1 (centres undefined) [5-OH-DPAT]		0.009 µmol/kg		0.011 µmol/kg		344 nM					ED50 [11]: inactive; ED50 [12]: inactive; ED50 [13]: inactive; ED50 [14]: inactive
CCCN(CCC)C1CCc2ccc3ccoc3c2C1 (centres undefined)	2.26 µmol/kg		16.2 nM		3.18 µmol/kg	6.1 nM	32 nM	3.24 µmol/kg			Activity [15]: inactive; Activity [16]: Weak activity; Ki [17]: Not Active; Activity [18]: Weak activity
CCCN(CCC)C1CCc2cccc(O)c2C1 (centres undefined) [8-OH-DPAT]	0.052 µmol/kg				0.063 µmol/kg			0.052 µmol/kg	> 1520 nM		Activity [19]: Weak activity; Activity [20]: Weak activity; Activity [22]: Weak activity
CCCN(CCC)C1CCc2ccc(O)cc2C1 (centres undefined)		0.03 µmol/kg		0.027 µmol/kg		47 nM			148 nM		ED50 [23]: inactive; ED50 [24]: inactive; ED50 [25]: inactive; ED50 [26]: inactive
CCCN(CCC)[C@@H]1CCc2c(OC)cccc2[C@@H]1C							15 nM				Saline control [27]: 70%; Saline control [28]: 370%; Saline control [29]: 245%
CCCN1CC[C@H]2c3c(ccc4ccoc34)CC[C@H]21	0.66 µmol/kg		323 nM		0.4 µmol/kg	3.9 nM	150 nM	0.41 µmol/kg	> 4070 nM	146 nM	ED50 [30]: inactive; ED50 [31]: inactive; Activity [33]: Weak activity
CCCN(CCC)C1CCc2c(ccc3ccoc23)C1 (centres undefined)		0.98 µmol/kg	56 nM	0.74 µmol/kg		210 nM	18 nM				ED50 [34]: inactive; ED50 [35]: inactive; ED50 [5]: inactive; ED50 [7]: inactive; ED50 [36]: inactive
CCCN1CC[C@H]2c3c(O)cccc3CC[C@H]21			> 4760 nM				769 nM		> 4070 nM	1637 nM	
CCCN(CCC)[C@@H]1CCc2c(ccc3ccoc23)[C@@H]1C			27 nM			120 nM	46 nM		55 nM	70 nM	Saline control [37]: 107%; Saline control [28]: 161%; Saline control [29]: 121%
